Laboratory results as given in US20050131029A1, “Immunophilin ligand treatment of antiretroviral toxic neuropathy” (priority 2003, published 2005).
Values belong to the molecule of their own block, whether it stands above or below them.

Tests used:
[1] = tested on: primary DRG sensory neurons; assay type: cell-based, rat; conditions: for relative neurotoxicity (potency in inhibiting neuritic outgrowth): comparison between NRTIs
[2] = tested on: primary DRG sensory neurons; test: Neuronal mitochondrial toxicity assay (JC-1 red:green fluorescence in TTC-labeled neurons); conditions: 4 hours; NRTIs 1-100 μM, FCCP 25 μM
[3] = tested on: primary DRG sensory neurons; assay type: cell-based
Schwann cells [4] = tested on: Schwann cells
Schwann cells [5] = test: Cell death in Schwann cells of the co-cultures; assay type: cell-based, rat; conditions: ddC dose of 1 mM (data not shown)
[6] = tested on: primary DRG sensory neurons; conditions: rat, 4 h
[7] = NRTI 1-100 μM added at 3 hours, 15 hours of further incubation

Compound: Cc1cn([C@H]2C[C@H](N=[N+]=[N-])[C@@H](CO)O2)c(=O)[nH]c1=O [AZT, zidovudine]
- effect on neuritic morphology [1, 7]: did not have any appreciable effect on neuritic morphology, even at high doses
- relative neurotoxicity (potency in inhibiting neuritic outgrowth) [1]: did not exert significant neurotoxicity

Compound: N#CC(C#N)=NNc1ccc(OC(F)(F)F)cc1 [FCCP]
- JC-1 red:green luminosity ratio (mitochondrial membrane potential differential) [2]: loss of mitochondrial membrane potential

Compound: C=CC[C@@H]1/C=C(\C)C[C@H](C)C[C@H](OC)[C@H]2O[C@@](O)(C(=O)C(=O)N3CCCC[C@H]3C(=O)O[C@H](/C(C)=C/[C@@H]3CC[C@@H](O)[C@H](OC)C3)[C@H](C)[C@@H](O)CC1=O)[C@H](C)C[C@@H]2OC [FK506]
- concentrations at which prevention of neuronal cell death was most prominent ([3]; ddC 10 μM, 18 hours): 10 to 100 nM

Compound: Nc1ccn([C@H]2CC[C@@H](CO)O2)c(=O)n1 [ddC, 2′,3′-dideoxycytidine]
- effect on neuritic morphology [1, 7]: frank neuritic degeneration was also seen
- total neuritic length and number of neurites per neuron [1, 7]: dose-dependent reduction
- relative neurotoxicity (potency in inhibiting neuritic outgrowth) [1]: most neurotoxic
- mitochondrial depolarization in Schwann cells (Schwann cells [4]): no evidence of mitochondrial depolarization
- cell death in Schwann cells (Schwann cells [5]): no cell death
- concentration achieving the same level of mitochondrial membrane depolarization as (25 μM) FCCP [6]: 1000 nM
- TUNEL staining of neurons (marker of apoptosis) ([3]; ddC 10 μM, 18 hours (data not shown)): lack of DNA laddering
- neuronal cell death (percentage of neurons labeling with live-cell marker) ([3]; exposure for 18 hours, varying doses): higher doses of ddC were associated with a lower percentage of neurons labeling with the “live-cell” marker

- concentration achieving the same level of mitochondrial membrane depolarization as (25 μM) FCCP [6]: 1000 nM
Compound: O=c1[nH]cnc2c1ncn2[C@H]1CC[C@@H](CO)O1 [ddl, didanosine]
